Data from paper PMC5385555, “Molecular basis for the behavioral effects of the odorant degrading enzyme Esterase 6 in Drosophila” (Scientific Reports, 2017).
pKd: −log10 of the molar value.

Molecular target: T1, LUSH (Drosophila melanogaster, UniProt O02372)
T1 sequence (O02372 30-153): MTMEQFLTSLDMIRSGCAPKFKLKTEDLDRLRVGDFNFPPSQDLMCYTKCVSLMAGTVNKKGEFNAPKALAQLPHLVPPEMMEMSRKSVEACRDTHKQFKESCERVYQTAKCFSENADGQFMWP
Experiment: fluorescence titration
Type: binding
Conditions: read-out: dissociation constant
Method: fluorescence titration on LUSH | A saturable NPN fluorescence change was recorded by a fluorometer and the dissociation constant

**Q.** How did the pKd turn out when c1ccc(Nc2cccc3ccccc23)cc1 [N-phenyl-1-naphthylamine] was run?
**A.** 5.62
